Source: ChEMBL document CHEMBL1145614, “Antagonists of the human adenosine A2A receptor. Part 3: Design and synthesis of pyrazolo[3,4-d]pyrimidines, pyrrolo[2,3-d]pyrimidines and 6-arylpurines” (Bioorg Med Chem Lett, 2008)
The source made the active and inactive calls.

Columns and labels:
Mus musculus [1] = assay: Reversal of haloperidol-induced hypolocomotion in mouse at 30 mg/kg, ip; format: functional, organism-based; set-up: dose 30 mg/kg
Adenosine receptor A2a = Adenosine receptor A2a (Homo sapiens, UniProt P29274)
Sequence of Adenosine receptor A2a (P29274 whole entry): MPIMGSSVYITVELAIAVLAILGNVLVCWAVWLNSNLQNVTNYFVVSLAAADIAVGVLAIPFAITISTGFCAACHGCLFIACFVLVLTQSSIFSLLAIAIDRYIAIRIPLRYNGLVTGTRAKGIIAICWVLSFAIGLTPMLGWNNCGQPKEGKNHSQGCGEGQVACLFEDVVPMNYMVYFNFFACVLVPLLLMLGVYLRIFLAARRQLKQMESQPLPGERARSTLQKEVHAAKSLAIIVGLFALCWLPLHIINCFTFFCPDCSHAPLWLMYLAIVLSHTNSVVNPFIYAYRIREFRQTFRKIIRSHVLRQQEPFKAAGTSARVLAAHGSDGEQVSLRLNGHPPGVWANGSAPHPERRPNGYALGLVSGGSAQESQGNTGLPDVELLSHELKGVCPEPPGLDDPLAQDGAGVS
Description: Binding affinity at human adenosine A2A receptor

Mus musculus [2] = assay: Reversal of haloperidol-induced hypolocomotion in ip dosed mouse; format: functional; conditions: read-out: MED
Mus musculus [3] = assay: Reversal of haloperidol-induced hypolocomotion in mouse at 10 mg/kg, po; format: functional, organism-based; set-up: dose 10 mg/kg
Mus musculus [4] = assay: Reversal of haloperidol-induced hypolocomotion in mouse at 30 mg/kg, po; format: functional, organism-based; set-up: dose 30 mg/kg
Mus musculus [5] = assay: Reversal of haloperidol-induced hypolocomotion in po dosed mouse; format: functional; conditions: read-out: MED
Mus musculus [6] = assay: Reversal of haloperidol-induced hypolocomotion in mouse at 1 mg/kg, po; format: functional, organism-based; set-up: dose 1 mg/kg
Mus musculus [7] = assay: Reversal of haloperidol-induced hypolocomotion in mouse at 10 mg/kg, ip; format: functional, organism-based; set-up: dose 10 mg/kg

Row | Ki (Adenosine receptor A2a) [nM] | SMILES | Activity (Mus musculus [1]) | other results
1 | 340 | CS(=O)(=O)c1ccc(Cn2ncc3c(-c4ccco4)nc(N)nc32)cc1 | inactive | –
2 | 48 | Nc1nc(-c2ccco2)c2cn[nH]c2n1 | Active | –
3 | 372 | Nc1nc(-c2ccco2)c2ncn(Cc3ccc([N+](=O)[O-])cc3)c2n1 | – | –
4 | 119 | Nc1nc(-c2ccco2)c2cnn(Cc3ccc([N+](=O)[O-])cc3)c2n1 | inactive | –
5 | 36 | Nc1nc(-c2ccco2)c2cnn(Cc3ccco3)c2n1 | Active | –
6 | 85 | Nc1nc(-c2ccco2)c2ncn(Cc3cccc([N+](=O)[O-])c3)c2n1 | inactive | –
7 | 28 | Nc1nc(-c2ccco2)c2cnn(Cc3cccnc3)c2n1 | Active | –
8 | 1890 | CN(C)c1nc(-c2ccco2)c2cnn(CCc3ccccc3)c2n1 | – | –
9 | 135 | OCCNc1nc(-c2ccco2)c2cnn(CCc3ccccc3)c2n1 | inactive | –
10 | 4 | COC(=O)c1cccc(Cn2ncc3c(-c4ccco4)nc(N)nc32)c1 | Active | –
11 | 3 | Nc1nc(-c2ccco2)c2cnn(Cc3ccccc3)c2n1 | Active | –
12 | 6 | Cc1cccc(Cn2cnc3c(-c4ccco4)nc(N)nc32)c1 | Active | –
13 | 45 | Nc1nc(-c2ccco2)c2cnn(CC3CCCCC3)c2n1 | Active | –
14 | 1620 | Cn1ccnc1-c1nc(N)nc2c1cnn2Cc1ccccc1F | inactive | –
15 | 23 | Nc1cccc(Cn2cnc3c(-c4ccco4)nc(N)nc32)c1 | Active | minimal effective dose (Mus musculus [2]): 10 mg/kg; Activity (Mus musculus [4]): Active; minimal effective dose (Mus musculus [5]): 30 mg/kg
16 | 206 | Nc1nc(-c2ccco2)c2ncn(C(=O)Nc3ccccc3)c2n1 | Active | –
17 | 4100 | Nc1nc(-c2ccco2)c2ncn(Cc3cccc(C(=O)O)c3)c2n1 | – | –
18 | 242 | Nc1nc(-c2ccco2)c2cc[nH]c2n1 | Active | –
19 | 110 | Nc1nc(-c2ccco2)c2cnn(CCc3ccccc3)c2n1 | inactive | –
20 | 4 | Nc1nc(-c2ccco2)c2cnn(Cc3ccccc3F)c2n1 | Active | –
21 | 5 | Nc1nc(-c2ccco2)c2ncn(Cc3ccccc3F)c2n1 | Active | –
22 | 1 | Nc1nc(-c2ccco2)c2cnn(C(=O)NCc3ccccc3)c2n1 | Active | –
23 | 3 | Cc1cccc(Cn2ncc3c(-c4ccco4)nc(N)nc32)c1 | Active | –
24 | 45 | COC(=O)c1cccc(Cn2cnc3c(-c4ccco4)nc(N)nc32)c1 | inactive | –
25 | 26 | Nc1nc(-c2ccco2)c2cnn(Cc3ccccc3[N+](=O)[O-])c2n1 | inactive | –
26 | 8 | Nc1nc(-c2ccco2)c2ncn(Cc3cccc(Cl)c3)c2n1 | inactive | –
27 | 779 | CS(=O)(=O)c1ccc(Cn2cnc3c(-c4ccco4)nc(N)nc32)cc1 | – | –
28 | 26 | C[C@@H](NC(=O)n1cnc2c(-c3ccco3)nc(N)nc21)c1ccccc1 | inactive | –
29 | 2090 | Nc1nc(-c2ncc[nH]2)c2cnn(Cc3ccccc3F)c2n1 | – | –
30 | 1320 | Nc1nc(-c2ccco2)c2cnn(Cc3cccc(C(=O)O)c3)c2n1 | inactive | –

Continued, molecule first:

Row | SMILES | Ki (Adenosine receptor A2a) [nM] | Activity (Mus musculus [1]) | other results
31 | Nc1nc(-c2ccco2)c2ncn(C(=O)NCc3ccccc3)c2n1 | – | Active | –
32 | Nc1nc(-c2ccco2)c2cnn(CCCc3ccccc3)c2n1 | 4 | Active | –
33 | Nc1nc(-c2ccco2)c2ncn(C(=O)NCc3ccco3)c2n1 | – | Active | minimal effective dose (Mus musculus [2]): < 30 mg/kg; Activity (Mus musculus [3]): Active; Activity (Mus musculus [4]): Active; minimal effective dose (Mus musculus [5]): 10 mg/kg
34 | Nc1nc(-c2cccs2)c2ncn(C(=O)NCc3ccccc3)c2n1 | 13 | inactive | –
35 | Nc1nc(-n2ccnn2)c2cnn(Cc3ccccc3F)c2n1 | 71 | Active | –
36 | Nc1nc(-c2ccco2)c2ncn(C(=O)NCCc3ccccc3)c2n1 | – | Active | –
37 | Nc1nc(-c2cc[nH]n2)c2cnn(Cc3ccccc3F)c2n1 | – | Active | –
38 | Nc1nc(-c2ccccc2)c2ncn(C(=O)NCc3ccccc3)c2n1 | 17 | Active | –
39 | Nc1nc(-c2ccco2)c2cnn(Cc3c(F)cccc3F)c2n1 | – | Active | –
40 | Nc1nc(-c2ccco2)c2nc[nH]c2n1 | 261 | Active | minimal effective dose (Mus musculus [2]): 10 mg/kg; Activity (Mus musculus [6]): Active; Activity (Mus musculus [4]): inactive; Activity (Mus musculus [7]): Active; minimal effective dose (Mus musculus [5]): 1 mg/kg
41 | Nc1nc(-c2cccs2)c2cnn(Cc3ccccc3F)c2n1 | 9 | – | –
42 | Nc1nc(-c2ccco2)c2ncn(C(=O)NCc3ccccc3Cl)c2n1 | – | Active | –
43 | Nc1nc(-c2ccco2)c2ncn(Cc3c(F)cccc3F)c2n1 | – | Active | –
44 | Nc1nc(-c2ccco2)c2cnn(Cc3ccc(C(F)(F)F)cc3)c2n1 | – | inactive | –
45 | Nc1nc(-c2nccs2)c2cnn(Cc3ccccc3F)c2n1 | 17 | inactive | –
46 | Nc1nc(-c2ccccn2)c2cnn(Cc3ccccc3F)c2n1 | – | Active | –
47 | C[C@H](NC(=O)n1cnc2c(-c3ccco3)nc(N)nc21)c1ccccc1 | – | Active | –

Row | SMILES | Ki (Adenosine receptor A2a) [nM] | Activity (Mus musculus [1]) | other results
48 | Nc1nc(-c2ccco2)c2ncn(Cc3ccccc3)c2n1 | – | Active | –
49 | Cc1cccc(CNC(=O)n2cnc3c(-c4ccco4)nc(N)nc32)c1 | – | Active | minimal effective dose (Mus musculus [2]): 1 mg/kg; Activity (Mus musculus [4]): Active; minimal effective dose (Mus musculus [5]): 30 mg/kg
50 | Cc1nc(-c2ccco2)c2ncn(C(=O)NCc3ccccc3)c2n1 | 102 | – | –
51 | Nc1nc(-c2ccco2)c2ncn(Cc3ccc(C(F)(F)F)cc3)c2n1 | – | Active | –
52 | Nc1nc(-c2ccco2)c2cnn(Cc3ccccc3Cl)c2n1 | – | inactive | –
53 | Nc1nc(-c2ccco2)c2cnn(Cc3cccc([N+](=O)[O-])c3)c2n1 | – | Active | –
54 | COc1cccc(Cn2cnc3c(-c4ccco4)nc(N)nc32)c1 | – | Active | –
55 | Nc1nc(-c2ccco2)c2ncn(C(=O)NCc3cccs3)c2n1 | – | Active | minimal effective dose (Mus musculus [2]): < 30 mg/kg; Activity (Mus musculus [4]): Active; minimal effective dose (Mus musculus [5]): 30 mg/kg
56 | CN(C)c1nc(-c2ccco2)c2ncn(C(=O)NCc3ccccc3)c2n1 | 23 | inactive | –
57 | CSc1nc(-c2ccco2)c2ncn(C(=O)NCc3ccccc3)c2n1 | 13 | inactive | –
58 | Nc1nc(-c2cncs2)c2ncn(C(=O)NCc3ccccc3)c2n1 | 56 | Active | –
59 | Cc1ccc(CNC(=O)n2cnc3c(-c4ccco4)nc(N)nc32)cc1 | – | Active | –
60 | Nc1nc(-c2ccco2)c2cnn(Cc3cccc(Cl)c3)c2n1 | – | Active | –
61 | COc1cccc(Cn2ncc3c(-c4ccco4)nc(N)nc32)c1 | – | Active | –
62 | Nc1cccc(Cn2ncc3c(-c4ccco4)nc(N)nc32)c1 | – | Active | –
63 | Nc1nc(-c2ccco2)c2cnn(Cc3ccccc3N)c2n1 | – | Active | –
64 | Nc1nc(-c2ccco2)c2ncn(C(=O)NCc3ccc(F)cc3)c2n1 | – | Active | –
